Laboratory results from patent US10993947B2, “Treatment of skin lesions” (PIQUR THERAPEUTICS AG, priority 2016, dated 2021).
Marks after values point to notes of the source that are not given here.

Legend:
[1] = biological target: T1, N-terminally GST-tagged mTOR (Homo sapiens, UniProt P42345); assay: In vitro mTOR binding assay (LanthaScreen TR-FRET); conditions: LanthaScreen kinase binding, Tracer 314; read-out: mTOR IC50 (binding)
T1 construct: truncated version: amino acids 1360-2549; purchased Life Technologies PR8683B
Experimental: A 10-point 4-fold serial dilution (highest concentration at 10 μmol/L and lowest concentration at 40 μmol/L) of each compound was tested for mTOR binding in duplicate in a 384-well plate. […] After 30 min incubation at RT, time-resolved FRET was measured with a Synergy 4 multi-mode microplate reader (Biotek Instruments) using the following settings: 100 microsecs delay before data collection, 200 microsecs time for data collection, 10 measurements per data point.
IC50 values of each compound were determined by plotting the emission ratio versus the compound concentrations (in logarithmic scale) and then by fitting a sigmoidal dose-response curve with variable slope to the data using GraphPad™ Prism.

pPKB S473 in A2058 cells = assay: In-cell Western blot, pPKB S473; type: cell-based; conditions: Homo sapiens, A2058, 1 h, 1 hour treatment
Experimental: (§1) Cells are fixed with 4% paraformaldehyde for 30 minutes at room temperature, washed 2 times with 1% BSA in PBS, permeabilized with 0.1% Triton X-100 in PBS/1% BSA for 30 minutes at room temperature and blocked with 5% goat serum in PBS/1% BSA/0.1% Triton X-100 for 30 minutes at room temperature. […] Cells are washed 3 times 5 minutes with PBS/1% BSA/0.1% triton and plate scanned with the Odyssey Infrared Scanning system using both 700 and 800 nm channels. […] To correct for background staining in the data analysis wells are treated only with secondary antibodies.
(§2) For data analysis the mean background signal from channel 700 nm and 800 nm are subtracted from each signal in channel 700 nm and 800 nm, respectively.
(§3) IC50 values of each compound are determined by plotting the normalized pPBK S473 and pS6 S235/S236 signals, respectively, versus the compound concentrations (in logarithmic scale) and then by fitting a sigmoidal dose-response curve with variable slope to the data using GraphPad™ Prism.

[2] = system: pS6 S235/S236 in A2058 cells; assay: In-cell Western blot, pS6 S235/S236; type: cell-based; conditions: Homo sapiens, A2058, 1 h, 1 hour treatment
Experimental: as §1, §2, §3

[3] = system: pig skin (lower epidermis and dermis); assay: Ex vivo pig skin penetration, first study (80% SBECD formulations); type: in vitro ADME
From the text: FIG. 3: PK profiles of nine formulations comprising the inventive compounds and control have been assessed. The control formulation Aldara (5% imiquimod) was applied to detect variations in skin permeability (local variability in the same animal and inter-subject variability). The stratum corneum was removed by tape stripping to avoid contamination during the biopsy extraction. […] One biopsy was taken from each control site. Additionally, 5 blank samples were taken.
Ex vivo and in vivo models to assess the penetration of various drug substances including the inventive compounds in the skin of pigs have been established. This model allows to assess the PK profile of several drug candidates including the inventive compounds in one subject, thereby enhancing comparability and avoiding inter-subject variability.
In the first study (FIG. 3, Table 15) the PK profiles of nine test formulations have been assessed using 80% SBECD either at pH3 or pH 7.

excised pig skin = conditions: 1 %
From the text: Excised pig skin was placed in a climate chamber to control temperature and humidity. […] Before biopsies were taken the stratum corneum was removed by tape stripping and biopsies consisted of the remaining epidermis and entire dermis.

T1 sequence (P42345 1360-2549): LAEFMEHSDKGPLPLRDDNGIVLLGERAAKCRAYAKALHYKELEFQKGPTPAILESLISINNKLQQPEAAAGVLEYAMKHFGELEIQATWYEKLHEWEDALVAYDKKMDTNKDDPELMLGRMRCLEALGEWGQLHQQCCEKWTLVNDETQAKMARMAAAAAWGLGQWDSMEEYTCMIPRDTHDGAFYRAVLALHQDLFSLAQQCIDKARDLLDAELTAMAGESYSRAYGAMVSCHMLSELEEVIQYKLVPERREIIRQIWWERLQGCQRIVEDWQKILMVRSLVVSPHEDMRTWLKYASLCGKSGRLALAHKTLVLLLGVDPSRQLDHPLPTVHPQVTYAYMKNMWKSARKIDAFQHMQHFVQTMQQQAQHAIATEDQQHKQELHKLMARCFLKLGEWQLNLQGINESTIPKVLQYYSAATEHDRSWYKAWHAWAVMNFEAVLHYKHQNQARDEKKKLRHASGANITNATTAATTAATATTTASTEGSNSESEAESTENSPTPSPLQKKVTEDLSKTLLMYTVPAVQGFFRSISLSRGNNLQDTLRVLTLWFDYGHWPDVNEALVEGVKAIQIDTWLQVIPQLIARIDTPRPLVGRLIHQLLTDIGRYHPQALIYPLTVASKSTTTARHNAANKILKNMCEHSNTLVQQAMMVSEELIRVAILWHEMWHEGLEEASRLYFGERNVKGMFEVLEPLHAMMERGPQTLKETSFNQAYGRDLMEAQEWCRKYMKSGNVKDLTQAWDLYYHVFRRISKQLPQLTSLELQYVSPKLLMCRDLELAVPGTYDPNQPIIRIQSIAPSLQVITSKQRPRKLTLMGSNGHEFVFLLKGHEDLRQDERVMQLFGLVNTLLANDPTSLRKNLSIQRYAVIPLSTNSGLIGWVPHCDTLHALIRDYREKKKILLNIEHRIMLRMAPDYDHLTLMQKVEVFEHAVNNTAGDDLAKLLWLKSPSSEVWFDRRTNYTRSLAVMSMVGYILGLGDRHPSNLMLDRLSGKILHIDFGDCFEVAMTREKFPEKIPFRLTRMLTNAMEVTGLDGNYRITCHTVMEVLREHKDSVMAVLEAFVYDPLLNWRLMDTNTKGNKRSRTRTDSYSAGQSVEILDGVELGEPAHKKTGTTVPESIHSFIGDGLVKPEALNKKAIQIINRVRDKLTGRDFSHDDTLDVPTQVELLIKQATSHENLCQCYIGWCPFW

Row | Compound | IC50 [1] | IC50 (pPKB S473 in A2058 cells) | IC50 [2] | penetration into pig skin ([3]; 1% experimental formulations, 80% SBECD, ex vivo) | intrinsic penetration properties compared with imiquimod (Aldara 5% cream) ([3]; ex vivo pig skin, estimated) | skin concentration / skin PK profile (excised pig skin)
1 | Nc1cc(C(F)F)c(-c2nc(N3C4CCC3COC4)nc(N3C4CCC3COC4)n2)cn1 [Compound 3, 5-(4-(3-oxa-8-azabicyclo[3.2.1]octan-8-yl)-6-(3-oxa-8-azabicyclo[3.2.1]octan-8-yl)-1,3,5-triazin-2-yl)-4-(difluoromethyl)pyridin-2-amine] | 0.008 µM | 0.231 µM | 0.105 µM | penetrated into pig skin (lower epidermis and dermis) to a significant extent | slightly lower | comparable to Cpd1*
2 | C[C@H]1COCCN1c1cc(-c2cnc(N)nc2C(F)(F)F)nc(N2CCOC[C@@H]2C)n1 [reference compound] | 0.287 µM | 0.193 µM | 0.617 µM | – | – | –
3 | C[C@H]1COCCN1c1cc(-c2cnc(N)cc2C(F)(F)F)nc(N2CCOCC2)n1 [reference compound] | 0.376 µM | 0.883 µM | 1.1 µM | – | – | –
4 | C[C@H]1COCCN1c1cc(-c2cnc(N)nc2C(F)(F)F)nc(N2CCOCC2)n1 [reference compound] | 1.25 µM | 0.29 µM | 1.03 µM | – | – | –
5 | Nc1cc(C(F)(F)F)c(-c2cc(N3CCOCC3)nc(N3C4CCC3COC4)n2)cn1 [reference compound] | 0.088 µM | 0.564 µM | 0.562 µM | – | – | –
6 | Nc1ncc(-c2cc(N3CCOCC3)nc(N3C4CCC3COC4)n2)c(C(F)(F)F)n1 [reference compound] | 0.121 µM | 0.34 µM | 0.74 µM | – | – | –
7 | C[C@H]1COCCN1c1nc(-c2cnc(N)cc2C(F)(F)F)cc(N2CCOCC2)n1 [reference compound] | 0.028 µM | 0.248 µM | 0.228 µM | – | – | –
8 | C[C@H]1COCCN1c1nc(-c2cnc(N)nc2C(F)(F)F)cc(N2CCOCC2)n1 [reference compound] | 0.186 µM | 0.191 µM | 0.535 µM | – | – | –
